Measurements reported in patent publication US20140371304A1, “METHOD FOR SUPPRESSING TUMORIGENICITY OF STEM CELLS” (SUCAMPO AG, priority 2013, published 2014).

System: C57/BL6 mouse embryonic stem cells
Assay: Tumor formation in SCID-beige mice from mouse embryonic stem cells pre-treated with compound
Format: in vivo
Settings: for Weight of kidney capsule tumor, mean / Volume of kidney capsule tumor, (after harvesting) mean / Volume of kidney capsule tumor, (within mice) mean / Weight of testis tumor, mean / Volume of testis tumor, (after harvesting) mean / Volume of testis tumor, (within mice) mean: MES cells treated with 1 micromolar for total 120 hrs, 1×10^6 cells/site injected to Fox Chase SCID-beige mice, 3 weeks post injection; for Weight of kidney capsule tumor, mean / Weight of testis tumor, mean: after harvesting; for Volume of kidney capsule tumor, (after harvesting) mean / Volume of testis tumor, (after harvesting) mean: measured after harvesting; for Volume of kidney capsule tumor, (within mice) mean / Volume of testis tumor, (within mice) mean: measured before harvesting; for tumorigenic potential of mouse ES cells: conclusion in words; for tumorigenic potential of mouse ES cells / volume and weight of the tumor tissues in kidneys and testes: MES cells treated with 1 micromolar, injected to SCID-beige mice; for volume and weight of the tumor tissues in kidneys and testes: result in words
Method: ESGRO COMPLETE™ C57/BL6 mouse embryonic stem cells (MES, Millipore # SF-CMTI-2) were grown in 0.1% gelatin coated T75 culture flasks using ESGRO complete serum free clonal grade medium (Millipore # SF001-B) and ESGRO complete supplement (Millipore # SF012-250, containing selective GSK3β inhibitor). Cells were treated for 96 hrs with either 1 micromolar of Compound-1 ((−)-7-[(2R,4aR,5R,7aR)-2-(1,1-difluoropentyl)-2-hydroxy-6-oxooctahydrocyclopenta[b]pyran-5-yl]heptanoic acid), Compound-2 ((+)-isopropyl (Z)-7-[(1R,2R,3R,5S)-3,5-dihydroxy-2-(3-oxodecyl)cyclopentyl]hept-5-enoate) or vehicle (0.1% DMSO) until they reached 60% confluence. Drugs and media were changed daily. Cells were incubated in the presence of freshly added drug for 96 hrs, and then tested for mycoplasma over the next 24 hrs. Therefore, the cells were exposed to vehicle or Compound-1 or -2 for a total of 120 hrs. The cells were harvested and mixed with 30% matrigel. The mixture was injected to Fox Chase SCID-beige mice at 1×10^6 cells/site Tumors were collected after 3 weeks of post injection from kidney and testis. Tumor volumes were measured before and after harvesting from the mice. Tumor weight was also measured after harvesting from mice.

Structure (SMILES) | Weight of kidney capsule tumor, mean | Volume of kidney capsule tumor, (after harvesting) mean | Volume of kidney capsule tumor, (within mice) mean | Weight of testis tumor, mean | Volume of testis tumor, (after harvesting) mean | Volume of testis tumor, (within mice) mean | tumorigenic potential of mouse ES cells | volume and weight of the tumor tissues in kidneys and testes
CCCCC(F)(F)[C@@]1(O)CC[C@H]2[C@@H](CC(=O)[C@@H]2CCCCCCC(=O)O)O1 [Compound-1, (−)-7-[(2R,4aR,5R,7aR)-2-(1,1-difluoropentyl)-2-hydroxy-6-oxooctahydrocyclopenta[b]pyran-5-yl]heptanoic acid] | 1.40 g | 2.10 cm^3 | 5.6 cm^3 | 1.87 g | 3.70 cm^3 | 10.42 cm^3 | greatly reduce | reduced
CCCCCCCC(=O)CC[C@@H]1[C@@H](C/C=C\CCCC(=O)OC(C)C)[C@@H](O)C[C@H]1O [Compound-2, (+)-isopropyl (Z)-7-[(1R,2R,3R,5S)-3,5-dihydroxy-2-(3-oxodecyl)cyclopentyl]hept-5-enoate] | 2.13 g | 5.44 cm^3 | 9.12 cm^3 | 1.33 g | 2.68 cm^3 | 5.66 cm^3 | greatly reduce | reduced
